The source of these data is patent publication US20260250257A1, “ANTIBACTERIAL AND SYNERGISTIC ACTIVE COMPOUND AND USE THEREOF” (EAST CHINA UNIVERSITY OF SCIENCE AND TECHNOLOGY, priority 2023, published 2026).

Common to all, as to format: cell-based
Assay [1] concerns ATCC13883 strain (Klebsiella pneumoniae). Nature of the assay: Checkerboard antibacterial synergistic activity test with polymyxin E (FIC). More on the design: key: FIC≤0.5 synergy; 0.5–1 additive; 1–2 indifferent; ≥2 antagonism. The conditions noted are these: combined with polymyxin E. In short, it runs like this: (§1)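 Broth checkerboard synergy with colistin; listed dilutions are working solutions, not final well levels. Overnight incubation, 16 h at 37° C.; FIC ≤0.5 denotes synergy, ≥2 antagonism.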

The subject of assay [2] is ATCC19606 strain (Acinetobacter baumannii). The description is as above. More on the design: key: FIC≤0.5 synergy; 0.5–1 additive; 1–2 indifferent; ≥2 antagonism. Particulars: combined with polymyxin E. In short, it runs like this:
as §1

The test system of assay [3] is ATCC25922 strain (Escherichia coli). The description is as above. More on the design: key: FIC≤0.5 synergy; 0.5–1 additive; 1–2 indifferent; ≥2 antagonism. Particulars: combined with polymyxin E. In short, it runs like this: as §1
The test system of assay [4] is ATCC9027 strain (Pseudomonas aeruginosa). Described as above. Particulars: combined with polymyxin E. More on the design: key: FIC≤0.5 synergy; 0.5–1 additive; 1–2 indifferent; ≥2 antagonism. In short, it runs like this: as §1
Assay [5] has as its system ATCC13883 strain (Klebsiella pneumoniae). As to the kind of experiment: Broth microdilution, antibacterial activity of the compound used alone. From the text:
(§2) The broth microdilution method was used to test the antibacterial effects of the compounds of the present invention against various Gram-negative bacterial strains when used alone.

The subject of assay [6] is ATCC19606 strain (Acinetobacter baumannii). The description is as above.
Text: as §2

In assay [7] the test system is ATCC25922 strain (Escherichia coli). The assay is described as above.
Text: as §2

Assay [8] deals with ATCC9027 strain (Pseudomonas aeruginosa). Described as above.
Text: as §2

≈ marks a conversion by molar mass, not a printed value.

As for `Cn1ccc2cccc(-c3c[se]c(N=C(N)N)n3)c21` [Compound I-72], the “Synergistic activity (FIC value) ATCC13883” value in assay [1] came out at 0.31. The “Synergistic activity (FIC value) ATCC19606” value in assay [2] is recorded as 0.25. Also, the “Synergistic activity (FIC value) ATCC25922” value in assay [3] is reported as 0.56. Also, the “Synergistic activity (FIC value) ATCC9027” value in assay [4] was determined as 0.5. Further, the “Antibacterial activity of the compound of Formula I, ATCC13883” value (“Antibacterial activity … ATCC13883” below) in assay [5] is 256 µg/mL. Moreover, in assay [6], the “Antibacterial activity of the compound of Formula I, ATCC19606” value (shortened to “Antibacterial activity … ATCC19606”) turned out to be 256 µg/mL. Further, the “Antibacterial activity of the compound of Formula I, ATCC25922” value (“Antibacterial activity … ATCC25922” for short) in assay [7] is 256 µg/mL. For the same molecule, the “Antibacterial activity of the compound of Formula I, ATCC9027” value (“Antibacterial activity … ATCC9027” below) in assay [8] is 256 µg/mL.

Consider `NC(N)=Nc1nc(-c2ccccc2-c2ccccc2)co1` [Compound I-73], for which, in assay [1], the “Synergistic activity (FIC value) ATCC13883” value was 1.25. In addition, in assay [2], the “Synergistic activity (FIC value) ATCC19606” value is listed as 0.25. For the same molecule, in assay [3], the “Synergistic activity (FIC value) ATCC25922” value turned out to be 1.25. For the same molecule, in assay [4], the “Synergistic activity (FIC value) ATCC9027” value came to 0.52. In addition, the “Antibacterial activity … ATCC13883” value in assay [5] came out at 256 µg/mL. In addition, in assay [6], the “Antibacterial activity … ATCC19606” value was found to be 256 µg/mL. Moreover, the “Antibacterial activity … ATCC25922” value in assay [7] was 256 µg/mL. The “Antibacterial activity … ATCC9027” value in assay [8] turned out to be 256 µg/mL.

Consider `NC(N)=Nc1nc(-c2cccc(-c3ccccc3)c2)cs1` [Compound I-74], for which the “Synergistic activity (FIC value) ATCC13883” value in assay [1] is 0.33. Further, in assay [2], the “Synergistic activity (FIC value) ATCC19606” value was 0.15. Besides, the “Synergistic activity (FIC value) ATCC25922” value in assay [3] was determined as 0.39. The “Synergistic activity (FIC value) ATCC9027” value in assay [4] came out at 0.62. Also, the MIC in assay [5] (read-out: Antibacterial activity of the compound of Formula I, ATCC13883) was determined as 256 µg/mL (≈ 870 µM); in assay [6] (read-out: Antibacterial activity of the compound of Formula I, ATCC19606), 256 µg/mL (≈ 870 µM); in assay [7] (read-out: Antibacterial activity of the compound of Formula I, ATCC25922), 256 µg/mL (≈ 870 µM); in assay [8] (read-out: Antibacterial activity of the compound of Formula I, ATCC9027) it was 256 µg/mL (≈ 870 µM).

`CC(=O)Nc1cc(-c2csc(N=C(N)N)n2)ccc1-c1ccccc1` [Compound I-75]: the “Synergistic activity (FIC value) ATCC13883” value in assay [1] is on record as 0.31. Besides, in assay [2], the “Synergistic activity (FIC value) ATCC19606” value came out at 0.12. Further, the “Synergistic activity (FIC value) ATCC25922” value in assay [3] is reported as 0.38. Moreover, the “Synergistic activity (FIC value) ATCC9027” value in assay [4] came out at 0.31. In assay [5], the “Antibacterial activity … ATCC13883” value is 256 µg/mL. In addition, in assay [6], the “Antibacterial activity … ATCC19606” value turned out to be 256 µg/mL. Moreover, the “Antibacterial activity … ATCC25922” value in assay [7] came to 256 µg/mL. The “Antibacterial activity … ATCC9027” value in assay [8] came out at 256 µg/mL.

Turning to `Cc1sc(N=C(N)N)nc1-c1cccc(S(C)(=O)=O)c1-c1ccccn1` [Compound I-76], the “Synergistic activity (FIC value) ATCC13883” value in assay [1] is 0.63. Also, the “Synergistic activity (FIC value) ATCC19606” value in assay [2] is given as 0.75. Also, the “Synergistic activity (FIC value) ATCC25922” value in assay [3] turned out to be 0.5. The “Synergistic activity (FIC value) ATCC9027” value in assay [4] was found to be 0.56. Further, the “Antibacterial activity … ATCC13883” value in assay [5] came to 256 µg/mL. Besides, the “Antibacterial activity … ATCC19606” value in assay [6] is 256 µg/mL. Further, the “Antibacterial activity … ATCC25922” value in assay [7] is 256 µg/mL. Besides, the “Antibacterial activity … ATCC9027” value in assay [8] was 256 µg/mL.

As to `CCc1sc(N=C(N)N)nc1-c1ccccc1-c1ccncn1` [Compound I-77], the “Synergistic activity (FIC value) ATCC13883” value in assay [1] was determined as 0.52. In addition, the “Synergistic activity (FIC value) ATCC19606” value in assay [2] came to 0.52. Also, the “Synergistic activity (FIC value) ATCC25922” value in assay [3] stood at 0.63. Besides, in assay [4], the “Synergistic activity (FIC value) ATCC9027” value was found to be 1.25. For the same molecule, the “Antibacterial activity … ATCC13883” value in assay [5] came out at 256 µg/mL. In assay [6], the “Antibacterial activity … ATCC19606” value was 256 µg/mL. The “Antibacterial activity … ATCC25922” value in assay [7] came out at 256 µg/mL. For the same molecule, the “Antibacterial activity … ATCC9027” value in assay [8] stood at 256 µg/mL.

Take `CN(C)c1ccc(-c2nc(N=C(N)N)[nH]c2Cl)c(-c2ccco2)c1` [Compound I-78]: the “Synergistic activity (FIC value) ATCC13883” value in assay [1] came out at 0.38. In addition, in assay [2], the “Synergistic activity (FIC value) ATCC19606” value is reported as 0.75. The “Synergistic activity (FIC value) ATCC25922” value in assay [3] amounted to 0.5. Moreover, the “Synergistic activity (FIC value) ATCC9027” value in assay [4] is 0.63. In assay [5], the “Antibacterial activity … ATCC13883” value came out at 256 µg/mL. Also, in assay [6], the “Antibacterial activity … ATCC19606” value stood at 256 µg/mL. For the same molecule, the “Antibacterial activity … ATCC25922” value in assay [7] was 256 µg/mL. Moreover, the “Antibacterial activity … ATCC9027” value in assay [8] is 128 µg/mL.
